Patent US20050288347A1, “Certain triazole-based compounds, compositions, and uses thereof” (priority 2004, published 2005)
“Also recorded” adds a separate entry of the source.

tested on: protein kinase; assay: HTS ATP-utilizing enzyme assay, off-chip mobility-shift format (Caliper HTS 250); format: biochemical, human; conditions: not given
From the text: The following procedures describe the reagent and plate preparation for a HTS of an ATP-utilizing enzyme, such as a protein kinase, run in an off-chip mobility-shift assay format. The following provides an HTS protocol for running a protein kinase HTS screen on a Caliper HTS 250 microfluidics system. The following parameters are dependent on the protein kinase used and can be determined by one skilled in the art as part of a typical assay development process. For example, the peptide substrate used can be identified from the current literature, by screening a peptide library of potential protein kinase substrates, or by other applicable means accepted in the field.
The following table provides typical screen assay parameters appropriate for a Caliper HTS 250 microfluidics system.
The reagents and buffers listed in the following table are generally applicable for developing and running an HTS screen on a human protein kinase using the Caliper HTS 250 system.
The following reagents were prepared using the previously described buffers.
A 2× Master Buffer solution was prepared by combining 200 mL of 1 M HEPES, pH 7.5, 2 mL of 10% Triton X-100, 20 mL of 10% BSA, and 778 mL of H2O.
Assays to determine the kinase inhibitory activity of chemical entities of the present disclosure were performed using a Caliper HTS 250 microfluidics device, Greiner U-bottom assay plates, a Multidrop for transfer of reagents, and Biomek FX (AMNCBM03) software. Initially, 2.4 μL of a 1 mM solution of a test compound in 100% DMSO was added to a well of the Greiner U-bottom plate. A single Greiner U-bottom plate having 24×16 wells could include multiple test compounds. […] Using the Biomek FX, 10 μL of 0.5 M EDTA was added by the span-8 to wells, indicated as 100% Control and 2.4 μL of 100% DMSO was added by the span-8 to wells, indicated as 0% Control. […] The total reaction volume in each well was 25 μL, and the concentration of the test compound was 10 μM. The assay plate was incubated for 2.5 hrs at 20° C. to 22° C. […] The inhibition of the ATP-utilizing enzyme, such as a particular protein kinase, was determined by measuring the ratio of the peptide substrate to phosphorylated product for each well of the assay plate using the Caliper HTS 250 system.
The use of three-sigma statistical limits represents a conservative method for declaring potential hits among targets. The three-sigma activity, as well as the mean population activity, can be different for each target enzyme.

| Structure (SMILES) | protein kinase against which the compound exhibits inhibitory activity (Table 3) | Kinase |
| --- | --- | --- |
| COc1ccccc1-n1c(SCC2COc3ccccc3O2)nnc1-c1cccc(Cl)c1 (centres unmarked) | MAPKAPK-3 |  |
| COc1ccccc1-n1c(SCCCCc2ccccc2)nnc1-c1cccc(N(C)C)c1 | MAPKAPK-3 |  |
| COc1ccccc1-n1c(SCCCCc2ccccc2)nnc1-c1cc(C)n[nH]1 | MAPKAPK-3 |  |
| COc1ccccc1-n1c(SCCCCc2ccccc2)nnc1-c1ccc(N)nc1 | MAPKAPK-3 |  |
| COc1ccccc1-n1c(SCCC(=O)Nc2cc(NC(=O)c3ccco3)ccc2C)nnc1-c1ccccc1 | MAPKAPK-3 |  |
| Cn1c(SCC(=O)NCc2ccc3c(c2)OCO3)nnc1-c1cc2ccccc2cc1O |  | CSK |

same assay, conditions: kinase(s) for which the compound exhibits protein kinase inhibitory activity; test compound 10 μM; active = greater than three-sigma from the mean activity of inactive compounds

| Structure (SMILES) | Kinase |
| --- | --- |
| O=C(CSc1nnc(-c2ccc(O)cc2)n1Cc1ccco1)N1CCc2ccccc2C1 | GSK3-β and GSK3-α and SRC |
| Cc1nnc(SCC(=O)N2CCCc3ccccc32)n1-c1ccccc1 | c-TAK1 |
| COc1ccc(NCc2nnc(SCC(=O)Nc3ccccc3C(=O)O)n2-c2ccc(OC)cc2)cc1 | FYN |
| CCc1nnc(NC(=O)CSc2nnc(-c3ccc(O)cc3)n2-c2cccc(Cl)c2)s1 | GSK3-β; also recorded: GSK3-α |
| NC(=O)CSc1nnc(-c2ccc(O)cc2)n1-c1cccc(Cl)c1 | GSK3-β; also recorded: GSK3-α |
| NC(=O)CSc1nnc(-c2cc3ccccc3cc2O)n1Cc1ccco1 | SRC |
| O=C(CSc1nnc(-c2cccnc2)n1Cc1ccco1)Nc1nccs1 | GSK3-α; also recorded: GSK3-β; also recorded: CDK2-cyclinE |
| O=C(CSc1nnc(-c2ccncc2)n1Cc1ccco1)Nc1cccc(I)c1 | GSK3-β and AKT3 and SRC |
| CC1CCCCC1NC(=O)CSc1nnc(-c2ccccc2)n1Cc1ccccc1 (centres unmarked) | AKT1 |
| CCn1c(SCC(=O)N2CCN(c3ccc(OC)cc3)CC2)nnc1-c1ccc(O)cc1 | SYK |
| COc1cc(-c2nnc(SCC(=O)Nc3cc([N+](=O)[O-])ccc3C)n2C)cc(OC)c1OC | MAPKAPK-2 |
| Cc1cccc(-c2nnc(SCC(=O)Nc3cccc(C(F)(F)F)c3)n2C)c1 | CDK2-cyclinE |
| COc1ccccc1-c1nnc(SCC(=O)Nc2ccccc2)n1C | AURORA-A |
| CCn1c(SCC(=O)Nc2nccs2)nnc1C1COc2ccccc2O1 (centres unmarked) | GSK3-α; also recorded: GSK3-β |
| COc1ccc(N2CCN(C(=O)CSc3nnc(-c4cc5ccccc5cc4O)n3C)CC2)cc1 | DAPK1 |
| COc1ccc(-n2c(SC(C)C(=O)Nc3ccc(C)cc3)nnc2-c2ccc(O)cc2)cc1 (centres unmarked) | GSK3-α |
| Cn1c(Cn2nnc3ccccc32)nnc1SCC(=O)Nc1cccc(O)c1 | GSK3-α |
| CCn1c(CNc2ccccc2Cl)nnc1SC(C)C(=O)Nc1ccc([N+](=O)[O-])cc1 (centres unmarked) | PDGFRR-α |
| O=C(CSc1nnc(CNc2cccc(Cl)c2)n1CCc1ccccc1)NC1CCCCC1 | CDK2-cyclinE |
| COc1ccccc1NC(=O)CSc1nnc(CNc2cccc(Cl)c2)n1-c1ccccc1 | MSK1 and SGK1 |

| Structure (SMILES) | Kinase |
| --- | --- |
| CCc1ccccc1NC(=O)CSc1nnc(COc2ccc(Cl)cc2)n1C | PDGFRR-α |
| CCn1c(CNc2ccc(Cl)cc2)nnc1SCC(=O)Nc1ccccc1 | c-TAK1 |
| CCOc1ccc(NCc2nnc(SCC(=O)Nc3cc(C)on3)n2-c2ccccc2OC)cc1 | PDGFRR-α and FYN |
| CCOc1ccc(NCc2nnc(SC(C)C(=O)N(c3ccccc3)c3ccccc3)n2-c2ccc(OC)cc2)cc1 (centres unmarked) | FYN |
| Cn1c(CNc2ccc(F)cc2)nnc1SCC(=O)Nc1ccc([N+](=O)[O-])cc1 | CHEK2 |
| COc1ccc(NCc2nnc(SCC(N)=O)n2C)cc1 | PDGFRR-α and FYN |
| COc1ccc(NCc2nnc(SCC(=O)N3c4ccccc4Sc4ccccc43)n2-c2ccccc2)cc1 | PDGFRR-α |
| COc1ccc(NCc2nnc(SCC(=O)N(c3ccccc3)c3ccccc3)n2-c2ccccc2)cc1 | CHEK2; also recorded: PDGFRR-α; also recorded: FYN α |
| COc1ccc(NCc2nnc(SCC(=O)Nc3ncc(C)s3)n2-c2ccccc2)cc1 | PDGFRR-α and FYN |
| CCn1c(CSc2nc(C)cc(C)n2)nnc1SCC(=O)Nc1nccs1 | GSK3-α |
| Cc1cc(C)nc(SCc2nnc(SCC(=O)Nc3cccc(C(F)(F)F)c3)n2C)n1 | CDK1 |
| CCn1c(CNc2ccc(C)cc2)nnc1SCC(=O)Nc1ccccc1OC | AURORA-A |
| COc1cccc(NC(=O)CSc2nnc(CNc3ccc(C)cc3)n2C)c1 | CHEK2 |
| Cc1ccc(-n2c(Cc3ccccc3)nnc2SCC(=O)N2c3ccccc3Sc3ccccc32)cc1 | CDK2-cyclinE |
| CCOc1ccc(NCc2nnc(S)n2-c2cccc(Cl)c2)cc1 | PDGFRR-α; also recorded: FLT-3 |
| COc1ccc(-n2c(S)nnc2CNc2ccc(Cl)cc2)cc1 | AURORA-A; also recorded: GSK3-α |
| CCOc1ccc(NCc2nnc(S)n2-c2ccc(OC)cc2)cc1 | FLT-3; also recorded: PDGFRR-α; also recorded: AURORA-A |
| CCc1ccccc1NC(=O)CSc1nnc(COc2ccc(C)cc2)n1C | PDGFRR-α |
| COc1cc(NC(=O)c2ccco2)c(OC)cc1NC(=O)CSc1nnc(-c2cccs2)n1C | PDGFRR-α |
| CCOc1ccc(NCc2nnc(SCC(=O)Nc3cccc(C(C)=O)c3)n2-c2ccccc2)cc1 | FYN and PDGFRR-α and FLT-3 |

| Structure (SMILES) | Kinase |
| --- | --- |
| COc1ccc(NCc2nnc(SCC(=O)Nc3cccc(Cl)c3)n2-c2ccc(C)cc2)cc1 | PDGFRR-α and FYN and AURORA-A |
| COc1ccc(NCc2nnc(SCC(=O)Nc3cccc(Cl)c3)n2C)cc1 | PDGFRR-α and AURORA-A and FYN |
| CCn1c(SCC(=O)Nc2sc(C)c(C)c2C#N)nnc1-c1ccc(S(=O)(=O)N2CCOCC2)cc1 | DAPK1 |
| COCCn1c(SCC(=O)Nc2cccc(O)c2)nnc1-c1ccncc1 | AKT1 |
| COc1ccc(NCc2nnc(SCC(=O)Nc3cccc(O)c3)n2-c2ccccc2OC)cc1 | CHEK2; also recorded: PDGFRR-α; also recorded: AURORA-A |
| COc1cccc(NC(=O)CSc2nnc(COc3cccc(C)c3)n2C)c1 | GSK3-α; also recorded: CDK2-cyclinE |
| CCC(=O)Nc1ccc(NC(=O)CSc2nnc(-c3ccc(O)cc3)n2CC)cc1C | GSK3-α |
| CC(=O)c1ccc(NC(=O)CSc2nnc(COc3ccccc3)n2-c2ccc(C)cc2)cc1 | CHEK2 |
| CCOc1ccc2nc(NC(=O)CSc3nnc(-c4ccncc4)n3Cc3ccco3)sc2c1 | GSK3-α and AKT1 |
| COc1ccc(-c2nnc(SCC(=O)Nc3ccc4c(c3)OCO4)n2C)cc1 | AKT1 |
| CCn1c(CNc2ccc(C)cc2C)nnc1SCC(=O)Nc1ccccc1-c1ccccc1 | GSK3-α |
| Cc1cccc(C)c1NCc1nnc(SCC(=O)Nc2ccccc2-c2ccccc2)n1C | LCK |
| O=C(CSc1nnc(Cn2nnc(-c3ccccc3)n2)n1-c1ccccc1)Nc1ccccc1 | GSK3-α |
| C=CCn1c(SCC(=O)Nc2sc3c(c2C(=O)OCC)CCC3)nnc1-c1ccncc1 | CDK1 and AURORA-A |
| CCOC(=O)CN(C(=O)CSc1nnc(-c2ccc([N+](=O)[O-])cc2)n1C)c1ccccc1 | PDGFRR-α and FYN |
| CCOC(=O)CN(C(=O)CSc1nnc(CNc2ccc(F)cc2)n1-c1ccccc1)c1ccccc1 | LCK |
| CCOC(=O)CN(C(=O)CSc1nnc(-c2ccncc2)n1-c1ccccc1)c1ccccc1 | PDGFRR-α |
| CCOC(=O)c1ccc(NC(=O)CSc2nnc(C)n2CCOC)cc1 | AKT1 |
| COC(=O)c1ccccc1NC(=O)CSc1nnc(CNc2cccc(Cl)c2)n1C | AURORA-A |
